Laboratory results taken from paper PMC9014859 (Journal of Medicinal Chemistry, 2022).
Entries after “also recorded” stand apart in the source; their conditions may differ.

Key:
[1] = test system: Rat small mesenteric artery
[2] = biological target: T1, NPR-C extracellular domains (Homo sapiens, UniProt P17342); assay: Fluorescence polarization; assay type: binding; details: competition against fluorescent P19 probe
T1 sequence (P17342 27-481): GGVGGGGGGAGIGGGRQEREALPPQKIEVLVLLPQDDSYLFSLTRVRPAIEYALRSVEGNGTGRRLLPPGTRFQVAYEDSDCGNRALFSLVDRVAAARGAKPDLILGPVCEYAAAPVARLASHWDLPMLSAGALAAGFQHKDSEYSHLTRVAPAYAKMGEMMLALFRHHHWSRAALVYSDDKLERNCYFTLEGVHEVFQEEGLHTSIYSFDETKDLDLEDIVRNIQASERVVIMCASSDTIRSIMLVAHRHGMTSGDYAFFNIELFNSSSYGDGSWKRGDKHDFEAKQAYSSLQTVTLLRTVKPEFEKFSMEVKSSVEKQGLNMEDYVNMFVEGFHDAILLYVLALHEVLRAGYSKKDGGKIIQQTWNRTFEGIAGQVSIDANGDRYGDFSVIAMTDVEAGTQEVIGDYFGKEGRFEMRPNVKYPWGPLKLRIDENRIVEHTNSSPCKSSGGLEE

[3] = test system: Mouse small mesenteric artery (NPR-C KO)
[4] = test system: CYP1A2, 2B6, 2C8, 2C9, 2C19, 2D6, 3A4 (value spans the isoforms); assay: in vitro; details: human
[5] = in vitro; details: PAMPA, pH 7.4, PAMPA Papp (cm/S × 10^–6)
[6] = biological target: T2, Human NPR-C in HeLa cells (Homo sapiens, UniProt P17342); assay: Inhibition of forskolin-induced cAMP production in HeLa cells; details: 100 μM compound, forskolin 10 μM
T2 sequence (P17342 27-541): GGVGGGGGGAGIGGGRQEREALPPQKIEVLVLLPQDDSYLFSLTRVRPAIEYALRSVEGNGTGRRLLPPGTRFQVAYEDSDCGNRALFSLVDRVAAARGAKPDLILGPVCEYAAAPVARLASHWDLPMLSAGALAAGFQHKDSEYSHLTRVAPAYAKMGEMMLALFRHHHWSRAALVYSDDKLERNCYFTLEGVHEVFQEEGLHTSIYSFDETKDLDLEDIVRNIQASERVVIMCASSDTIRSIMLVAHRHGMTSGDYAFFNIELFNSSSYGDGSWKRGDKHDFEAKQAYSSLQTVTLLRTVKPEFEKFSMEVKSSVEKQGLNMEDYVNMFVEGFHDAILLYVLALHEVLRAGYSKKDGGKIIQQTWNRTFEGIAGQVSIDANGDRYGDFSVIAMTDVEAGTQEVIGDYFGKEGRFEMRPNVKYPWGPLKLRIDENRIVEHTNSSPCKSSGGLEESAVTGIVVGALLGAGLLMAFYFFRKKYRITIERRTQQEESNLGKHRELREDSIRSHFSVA

[7] = in vitro; details: plasma
[8] = physchem; details: solubility (mg/mL), PBS, 5% DMSO, room temperature, 3 h
[9] = test system: CYP isoforms 1A2, 2B6, 2C8, 2C9, 2C19, 2D6, 3A4; assay: in vitro; details: human
[10] = in vitro; details: male, Sprague-Dawley, rat, hepatocytes
[11] = biological target: T3, Human FL NPR-C (27–541)-10His-Flag (Homo sapiens, UniProt P17342); assay: Surface plasmon resonance; details: SPR, affinity model, 1:1 binding; for Kd: KD (μM)
T3 sequence (P17342 27-541): T2 sequence (P17342 27-541)

[12] = pH 7.4

CC(=O)Nc1ccc(Nc2ncnc(NCCC(=O)OC(C)(C)C)n2)cc1 [Compound 1, tert-Butyl 3-((4-((4-Acetamidophenyl)amino)-1,3,5-triazin-2-yl)amino)propanoate]
reduction in potency (EC50 value) when treated with M372049 ([1]; rat SMA): 10 fold | reduction in potency (EC50 value) when treated with osteocrin ([1]; rat SMA): 2.5 fold | FP EC50 (μM) [2]: Low % binding | reduction in potency in NPR-C KO tissue ([3]; mouse SMA, KO vs wild-type): 6.4 fold | EC50 [4]: > 50 µM

COC(=O)[C@H](CC(C)C)Nc1nc(Cl)nc(N[C@H]2CC[C@H](Nc3nc(Cl)nc(N[C@@H](CC(C)C)C(=O)OC)n3)CC2)n1 [Compound 17, Dimethyl 2,2′-(((((1r,4r)-Cyclohexane-1,4-diyl)bis(azanediyl))bis(6-chloro-1,3,5-triazine-4,2-diyl))bis(azanediyl))bis(4-methylpentanoate)]
Rat small mesenteric artery EC50+NPR-C inhibitor (M372049) ± SEM (μM) ([1]; vasorelaxation, with M372049 (10 μM)): maintained their activity | Papp [5]: < 1 ×10⁻⁶ cm/s | Papp ([5]; pH 7.4, 5 h, room temperature): < 0.023 ×10⁻⁶ cm/s | inhibition of cAMP formation [6]: inhibition trend that did not reach statistical significance | fraction unbound ([7]; Sprague-Dawley, human and rat): < 0.005 | solubility [8]: > 70 µg/mL | Mouse small mesenteric artery NPR-C KO EC50 ± SEM (μM) ([3]; vasorelaxation, NPR-C knockout): maintained their activity | EC50 [9]: 4.96 to 37.8 µM | hepatocyte CLint [10]: < 6.4 µL/min/1e6 cells | half-life ([10]; hepatocyte (rat) T1/2 (min), 1 μM test compound): > 3.33 h

CC(C)C[C@H](Nc1nc(Cl)nc(Nc2ccc(NC(=O)c3ccccc3)cc2)n1)C(=O)OC(C)(C)C [Compound 22, tert-Butyl (4-((4-Benzamidophenyl)amino)-6-chloro-1,3,5-triazin-2-yl)-L-leucinate]
KD (μM) [11]: poor binding profile; also recorded: Rmax>>theoretical

CC(=O)Nc1ccc(Nc2ncnc(N[C@@H](CC(C)C)C(=O)OC(C)(C)C)n2)cc1 [Compound 26, tert-Butyl (4-((4-Acetamidophenyl)amino)-1,3,5-triazin-2-yl)-L-leucinate]
FP EC50 (μM) [2]: Inactive | inhibition of cAMP formation [6]: inhibition trend that did not reach statistical significance

CC(=O)Nc1ccc(Nc2ncnc(N[C@@H](CC(C)C)C(=O)O)n2)cc1 [Compound 27, (4-((4-Acetamidophenyl)amino)-1,3,5-triazin-2-yl)-L-leucine]
fraction unbound [7]: 0.15 | solubility [8]: > 70 µg/mL | EC50 [4]: > 50 µM

CON(C)C(=O)[C@H](CC(C)C)Nc1ncnc(Nc2ccc(NC(C)=O)cc2)n1 [Compound 32, (S)-2-((4-((4-Acetamidophenyl)amino)-1,3,5-triazin-2-yl)amino)-N-methoxy-N,4-dimethylpentanamide]
Kd [11]: 144 ± 7.7 µM

CC(=O)Nc1ccc(Nc2ncnc(N[C@H](CC(C)C)C(=O)OC(C)(C)C)n2)cc1 [Compound 34, tert-Butyl (4-((4-Acetamidophenyl)amino)-1,3,5-triazin-2-yl)-D-leucinate]
KD (μM) [11]: failing to pass the preliminary binding screen

CC(=O)Nc1ccc(Nc2ncnc(NCC(=O)OC(C)(C)C)n2)cc1 [Compound 36, tert-Butyl (4-((4-Acetamidophenyl)amino)-1,3,5-triazin-2-yl)glycinate]
PAMPA Papp (cm/S × 10^–6) [12]: < 1

CC(=O)Nc1ccc(Nc2ncnc(NC(C)(C)C(=O)OC(C)(C)C)n2)cc1 [Compound 38, tert-Butyl 2-((4-((4-Acetamidophenyl)amino)-1,3,5-triazin-2-yl)amino)-2-methylpropanoate]
KD (μM) [11]: did not meet the minimum binding threshold

CC(=O)Nc1ccc(Nc2ncnc(N[C@@H](C)C(=O)OC(C)(C)C)n2)cc1 [Compound 39, tert-Butyl (4-((4-Acetamidophenyl)amino)-1,3,5-triazin-2-yl)-L-alaninate]
KD (μM) [11]: did not meet the minimum binding threshold

CC(=O)Nc1ccc(Nc2ncnc(N[C@@H](Cc3ccc(O)cc3)C(=O)OC(C)(C)C)n2)cc1 [Compound 42, tert-Butyl (4-((4-Acetamidophenyl)amino)-1,3,5-triazin-2-yl)-L-tyrosinate]
KD (μM) [11]: did not meet the minimum binding threshold

CC(=O)Nc1ccc(Nc2ncnc(N[C@H](CC(=O)OC(C)(C)C)Cc3ccccc3)n2)cc1 [Compound 44, tert-Butyl (S)-3-((4-((4-Acetamidophenyl)amino)-1,3,5-triazin-2-yl)amino)-4-phenylbutanoate]
FP EC50 (μM) [2]: Inactive | Kd [11]: 29.6 ± 4.5 µM
